Assay results as given in patent US7838238B2, “Method for screening anti-HIV Drugs and a diagnostic method of AIDS” (CellFree Sciences Co., Ltd., priority 2008, dated 2010).
Peptide text beside a SMILES is read from it. * marks the point of attachment. Cbz = O=C(OCc1ccccc1)*

Test system: intracellular Gag in SOCS1-siRNA HeLa cells
Assay: Immunoblotting of intracellular Gag-GFP in SOCS1-siRNA HeLa cells treated with NH4Cl or MG132
Assay type: cell-based, human
Experimental: (F) HeLa cells were transfected with Cag-GFP and cotransfected with either control-siRNA or SOCS1-siRNA I. After 36 hours, the cells were treated with a mock solution, 10 mM NH4Cl or 10 μM MG132 for another 16 hours. Cell were then harvested and subjected to immunoblotting analysis with anti-GCF or anti-β-actin antibodies.

| Compound | level of intracellular Gag (10 μM MG132, 16 hours) | level of intracellular Gag (10 mM NH4Cl, 16 hours) |
| --- | --- | --- |
| CC(C)C[C@@H](C=O)NC(=O)[C@H](CC(C)C)NC(=O)[C@H](CC(C)C)NC(=O)OCc1ccccc1 [MG132] (Cbz-Leu-Leu-Leu-aldehyde) | not |  |
| Cl.N [NH4Cl] |  | significantly increased |
